Measured values as given in US20250345277A1, “Ionizable Liposome, Preparation Thereof, and Application Thereof in Gene Delivery” (MAXIRNA (ZHEJIANG) TECHNOLOGY CO. LTD., priority 2021, published 2025).

How the values were obtained:
[1] = Size and polydispersity index PDI of lipid nanoparticles (Malvern Zetasizer Nano ZS); assay type: physicochemical; conditions: LNP ionizable lipid/DOPE/cholesterol/DSPE-PEG2000 35/16/46.5/2.5 mol% encapsulating EGFP mRNA; for Particle Size: in nm (unit assumed)
Description: (§1) The ionizable lipid compound of Example 1 was dissolved in ethanol with DOPE, cholesterol and DSPE-PEG2000 (all purchased from AVT (Shanghai) Pharmaceutical Technology Co., Ltd.) at a molar ratio of 35:16:46.5:2.5 to prepare ethanol lipid solution, and enhanced green fluorescent protein (EGFP) mRNAs (Shanghai Maximna Pharmaceutical Engineering Co., Ltd., JN-4201) were diluted in 20 mM citrate buffer (pH=6.1) to obtain mRNA aqueous solution. Ethanol lipid solution and mRNA aqueous solution were mixed at a volume ratio of 1:3 by using a microfluidic device (Micro&Nano (Shanghai) Instrument Technology Co., Ltd., model: INano™ML), LNPs were prepared with a weight ratio of approximately 10:1 between total lipids and mRNAs. The medium was replaced by ultrafiltration, ethanol was removed and volumed with DPBS. Finally, the lipid nanoparticles were filtered through a 0.2 μm sterile filter to obtain a LNP formulation encapsulating eGFP mRNA using ionizable lipid/DOPE/cholesterol/DSPE-PEG2000 (35/16/46.5/2.5 mol %), the concentration of mRNAs being 0.002 mg/mL-0.5 mg/mL.
Using Malvern Zetasizer Nano ZS (Malvern UK), the size and polydispersity index PDI of lipid nanoparticles were measured at […].

[2] = Entrapment efficiency of LNP preparation encapsulating EGFP mRNA; assay type: physicochemical; conditions: LNP ionizable lipid/DOPE/cholesterol/DSPE-PEG2000 35/16/46.5/2.5 mol% encapsulating EGFP mRNA
Description: as §1, with “mg/mL. […]” for “mg/mL.”

[3] = tested on: DC2.4 cells; assay: In vitro transfection of DC2.4 cells with EGFP mRNA LNP preparation (flow cytometry); assay type: cell-based, mouse; conditions: DC2.4 cells; for Cell Viability / Positive Rate (EGFP): EGFP mRNA LNP, 200 ng mRNA per well, flow cytometry; for Fluorescence Intensity: EGFP mRNA expression level, normalized based on the sample with the highest fluorescence intensity
Source text: The description is based on peripheral blood mononuclear cells PBMC (Shanghai Oribiotech Co., Ltd.), human peripheral blood leukemia T cell Jurkat (ATCC), tumor infiltrating lymphocyte TIL (isolated from resected tumor tissue of a liver cancer patient, the preparation method refers to CN114763530A), mouse bone marrow-derived dendritic cells DC2.4 (Cell Bank of the Chinese Academy of Sciences), and Chinese hamster ovary cells CHO (ATCC) were used as verified cell lines for liposome transfection. PBMC, Jurkat, and TIL cells grew in suspension, while DC2.4 and CHO cells grew by adherent culture. All the operation steps of cell culture must strictly abide by the prescribed procedures, and sterile reagents is used to perform aseptic operations under a sterile workbench. The main steps are as follows: • 1) Cell recovery: the preserved cell cryopreservation solution was taken out of the −80° C. refrigerator, and was immediately put in a 37° C. water bath for rapid and continuous shaking, and was completely melted within one minute. Fresh medium was added to the 15 mL centrifuge tube in advance, and the cell solution was added to the centrifuge tube in a biological safety cabinet. A centrifuge tube of the same quality was taken and placed symmetrically in a centrifuge, centrifuged at a low speed at 1200 rpm for 5 min. After centrifugation, the supernatant was removed, and an appropriate amount of medium was slowly added along the tube wall. After the cells were evenly dispersed by blowing gently, the cell suspension was pipette and added to the culture bottle prepared in advance. The state and distribution of the cells in the early stage of recovery were observed under a microscope. The culture bottle was placed in a 5% CO2 incubator and incubated at 37° C., and the recovery time was recorded. • 2) Cell subculture: Under the microscope, if the cell density in the field of view reaches 80%-90%, the cells can be subcultured. Adherent cells need to be digested with trypsin. In order to avoid the residual serum in the culture medium to reduce the activity of trypsin, DPBS solution was added to wash once after removing the original culture medium. After remove the DPBS solution, trypsin was added to degrade the protein at the junction between cells. This separates the cells for further culture. The cells were gently shaked evenly and put into the incubator for digestion for 2 min. Immediately after the digestion was completed, an appropriate amount of medium was added to the original petri dish to terminate the digestion. Finally, the cells were carefully blowed off using a pipette and blowed until they are evenly dispersed, and then inoculated and subcultured at a certain ratio according to the experimental requirements. […]
• 1) DC2.4 cells recovery: the frozen DC2.4 cells were taken out from the −80° C. refrigerator, put in a 37° C. water bath to quickly thaw the cells, added to the preheated medium after thawing, centrifuged at 1200 rpm for 5 min, the supernatant was discarded, and an appropriate amount of DMEM medium with 10% FBS was added to resuspend the recovered DC2.4, and placed in a 5% CO2 incubator at 37° C. for activation and culture. • 2) According to the experimental arrangement, DC2.4 cells were plated on a 24-well plate one day in advance for cell transfection. Through cell counting, the number of cells and cell viability were recorded, the cell suspension were taken at 2×10^5 cells per well, then a certain volume of DMEM medium containing 10% FBS was added and mixed evenly, 1 mL of mixture was added to each well for subsequent transfection experiment. • 3) After 24 hours, the medium was gently removed 30 minutes in advance by a pipette, 1 mL DPBS was added to each well for washing and then removed, then 300 μL serum-free Opti-MEM medium was added to each well for subsequent transfection experiments.
Subsequent steps are the same as the transfection protocol for PBMC cells. […]

| Structure (SMILES) | PDI [1] | Particle Size [1] | Entrapment Efficiency [2] | Cell Viability [3] | Positive Rate (EGFP) [3] | Fluorescence Intensity [3] |
| --- | --- | --- | --- | --- | --- | --- |
| CCCCCCCCCCCCC(O)CN(CCOCCN(CCOCCN(CC(O)CCCCCCCCCCCC)CC(O)CCCCCCCCCCCC)CCN1CCN(CCO)CC1)CC(O)CCCCCCCCCCCC (stereo not drawn) [J-C14] | 0.121 | 126.1 | 83.58% | >99.0% | 59.1% | 0.06 |
| CCCCCCCCCCCCCCC(O)CN(CCOCCN(CCOCCN(CC(O)CCCCCCCCCCCCCC)CC(O)CCCCCCCCCCCCCC)CCN1CCN(CCO)CC1)CC(O)CCCCCCCCCCCCCC (stereo not drawn) [J-C16] | 0.077 | 104.1 | 81.08% | 85.2% | 62.0% | 0.04 |
| CCCCCCCCCCCCCCCCC(O)CN(CCOCCN(CCOCCN(CC(O)CCCCCCCCCCCCCCCC)CC(O)CCCCCCCCCCCCCCCC)CCN1CCN(CCO)CC1)CC(O)CCCCCCCCCCCCCCCC (stereo not drawn) [J-C18] | 0.163 | 93.7 | 88.56% | 83.6% | 60.9% | 0.04 |
| CCCCCCCCCCC(O)CN(CCOCCOCCN(CCOCCOCCN(CC(O)CCCCCCCCCC)CC(O)CCCCCCCCCC)CCN1CCN(CCO)CC1)CC(O)CCCCCCCCCC (stereo not drawn) [K-C12] | 0.075 | 75.9 | 92.83% | >99.0% | 62.8% | 0.07 |
| CCCCCCCCCCCCC(O)CN(CCOCCOCCN(CCOCCOCCN(CC(O)CCCCCCCCCCCC)CC(O)CCCCCCCCCCCC)CCN1CCN(CCO)CC1)CC(O)CCCCCCCCCCCC (stereo not drawn) [K-C14] | 0.155 | 122.7 | 87.00% | 82.3% | 59.8% | 0.03 |

Further lines, with some results ahead:

| PDI [1] | Particle Size [1] | Entrapment Efficiency [2] | Structure (SMILES) | Cell Viability [3] | Positive Rate (EGFP) [3] | Fluorescence Intensity [3] |
| --- | --- | --- | --- | --- | --- | --- |
| 0.185 | 76.0 | 95.74% | CCCCCCCCCCCCCCC(O)CN(CCOCCOCCN(CCOCCOCCN(CC(O)CCCCCCCCCCCCCC)CC(O)CCCCCCCCCCCCCC)CCN1CCN(CCO)CC1)CC(O)CCCCCCCCCCCCCC (stereo not drawn) [K-C16] | 93.4% | 60.2% | 0.04 |
| 0.134 | 124.2 | 92.77% | CCCCCCCCCCCCCCCCC(O)CN(CCOCCOCCN(CCOCCOCCN(CC(O)CCCCCCCCCCCCCCCC)CC(O)CCCCCCCCCCCCCCCC)CCN1CCN(CCO)CC1)CC(O)CCCCCCCCCCCCCCCC (stereo not drawn) [K-C18] | >99.0% | 74.7% | 0.05 |
| 0.181 | 88.4 | 93.38% | CCCCCCCCCCC(O)CN(CCOCCOCCOCCN(CCOCCOCCOCCN(CC(O)CCCCCCCCCC)CC(O)CCCCCCCCCC)CCN1CCN(CCO)CC1)CC(O)CCCCCCCCCC [L-C12] | 84.9% | 58.1% | 0.07 |
| 0.126 | 101.5 | 91.54% | CCCCCCCCCCCCC(O)CN(CCOCCOCCOCCN(CCOCCOCCOCCN(CC(O)CCCCCCCCCCCC)CC(O)CCCCCCCCCCCC)CCN1CCN(CCO)CC1)CC(O)CCCCCCCCCCCC [L-C14] | 99.0% | 60.0% | 0.04 |
| 0.085 | 111.5 | 92.34% | CCCCCCCCCCCCCCC(O)CN(CCOCCOCCOCCN(CCOCCOCCOCCN(CC(O)CCCCCCCCCCCCCC)CC(O)CCCCCCCCCCCCCC)CCN1CCN(CCO)CC1)CC(O)CCCCCCCCCCCCCC [L-C16] | 97.2% | 64.8% | 0.06 |
| 0.182 | 124.0 | 91.70% | CCCCCCCCCCCCCCCCC(O)CN(CCOCCOCCOCCN(CCOCCOCCOCCN(CC(O)CCCCCCCCCCCCCCCC)CC(O)CCCCCCCCCCCCCCCC)CCN1CCN(CCO)CC1)CC(O)CCCCCCCCCCCCCCCC [L-C18] | 98.6% | 59.7% | 0.02 |
